In the assay the target is PDE10A (Homo sapiens (Human), UniProt Q9Y233). As to the kind of experiment: Measurement of PDE activity (recombinant PDE, cAMP HTRF). It is filed as biochemical. The note with it: 20 nM cyclic nucleotide substrate, 60 minutes at 29 C. How it is done: a) Measurement of PDE Activity
The recombinant PDE proteins are used in in vitro enzymatic reaction for measurement of PDE activity. These recombinant proteins, including PDE10A (human, rat and mouse PDE10) and isoforms of PDEs 1, 3, 4, and 5, were purchased from commercial vendor BPS Bioscience. The enzymatic activity of PDEs was determined by cAMP measurement kit from CisBio (IBA) using HTRF technology.
The PDE enzymatic reaction was carried out in assay buffer (20 mM Tris-HCl pH7.5, 10 mM MgCl2, 0.1% bovine serum albumin) containing enzyme and substrate. […] The substrate cyclic nucleotide (cAMP or cGMP) concentration used in the assay was 20 nM for PDE10, and 100 nM for other PDEs. The inhibitory effect of compound was determined by incubating various concentration of inhibitor in the enzymatic assay. […] Next, the compound at varying concentration was mixed with PDE enzyme. The reaction was initiated by addition of cyclic nucleotide substrate, and incubated for 60 minutes at 29 C. The reaction was stopped by addition of lysis buffer from assay kit. The cAMP-d2 and anti-cAMP cryptate in the lysis buffer detected the level of cAMP left from the PDE hydrolysis reaction. […] Thus, IC50 value of inhibitor can be obtained by plotting inhibitor concentration against PDE activity at that concentration.
(In TR-FRET formats the signal depends on donor and acceptor labels being close together.)

Sequence of PDE10A (Q9Y233 whole entry, species assumed, canonical isoform): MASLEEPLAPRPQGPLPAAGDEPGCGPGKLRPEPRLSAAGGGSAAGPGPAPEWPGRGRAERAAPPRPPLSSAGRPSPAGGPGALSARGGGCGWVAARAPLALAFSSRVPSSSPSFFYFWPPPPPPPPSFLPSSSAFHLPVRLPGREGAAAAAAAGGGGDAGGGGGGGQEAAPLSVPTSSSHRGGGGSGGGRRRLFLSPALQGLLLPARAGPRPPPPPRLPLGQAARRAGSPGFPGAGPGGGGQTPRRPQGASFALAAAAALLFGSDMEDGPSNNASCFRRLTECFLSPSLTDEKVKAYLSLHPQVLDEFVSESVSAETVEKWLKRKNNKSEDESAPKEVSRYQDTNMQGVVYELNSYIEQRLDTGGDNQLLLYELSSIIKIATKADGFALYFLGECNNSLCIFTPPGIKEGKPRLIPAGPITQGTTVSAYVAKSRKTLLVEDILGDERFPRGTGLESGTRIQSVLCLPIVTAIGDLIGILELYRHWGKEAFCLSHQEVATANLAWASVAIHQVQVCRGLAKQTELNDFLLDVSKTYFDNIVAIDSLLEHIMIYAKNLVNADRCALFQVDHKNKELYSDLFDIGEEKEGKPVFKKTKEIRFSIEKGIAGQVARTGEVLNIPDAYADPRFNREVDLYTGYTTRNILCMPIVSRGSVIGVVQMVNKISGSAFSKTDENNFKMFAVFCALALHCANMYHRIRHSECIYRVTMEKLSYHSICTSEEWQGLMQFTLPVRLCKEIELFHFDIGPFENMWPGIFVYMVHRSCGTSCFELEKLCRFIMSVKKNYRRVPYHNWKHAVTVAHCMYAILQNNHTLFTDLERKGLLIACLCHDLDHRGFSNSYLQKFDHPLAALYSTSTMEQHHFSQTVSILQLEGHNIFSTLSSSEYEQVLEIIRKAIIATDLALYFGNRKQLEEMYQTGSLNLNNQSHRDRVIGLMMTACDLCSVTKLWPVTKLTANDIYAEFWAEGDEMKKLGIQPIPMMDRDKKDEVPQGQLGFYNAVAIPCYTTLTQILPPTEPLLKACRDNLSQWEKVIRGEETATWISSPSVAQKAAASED

The IC50 is the concentration that inhibits the measured activity by half. Take `CCC(CC)n1cc(C(=O)NC2CSc3ccccc32)c2cc(OC)c(OC)cc2c1=O` (centres unmarked) [Example 216, 2-(1-Ethyl-propyl)-6,7-dimethoxy-1-oxo-1,2-dihydro-isoquinoline-4-carboxylic acid (2,3-dihydro-benzo[b]thiophen-3-yl)-amide]: the IC50 was less than 100 nM.

Take `CCC(CC)n1cc(C(=O)NCc2sccc2C)c2cc(OC)c(OC)cc2c1=O` [Example 258, 6,7-Dimethoxy-N-((3-methylthiophen-2-yl)methyl)-1-oxo-2-(pentan-3-yl)-1,2-dihydroisoquinoline-4-carboxamide]: the IC50 was 100 to 200 nM. As for `CCn1cc(C(=O)NCc2ccc(C)cc2OCC2CC2)c2cc(OC)c(OC)cc2c1=O` [Example 290, N-[[2-(Cyclopropylmethoxy)-4-methyl-phenyl]methyl]-2-ethyl-6,7-dimethoxy-1-oxo-isoquinoline-4-carboxamide], the IC50 was 200 to 500 nM. The value for `CCC(CC)n1cc(C(=O)NCc2ccc(C)s2)c2cc(OC)c(OC)cc2c1=O` [Example 237, 6,7-Dimethoxy-N-((5-methylthiophen-2-yl)methyl)-1-oxo-2-(pentan-3-yl)-1,2-dihydroisoquinoline-4-carboxamide] was 100 to 200 nM; that for `CCC(CC)n1cc(C(=O)NC2CCc3ccc(C)cc32)c2cc(OC)c(OC)cc2c1=O` (centres unmarked) [Example 260, 6,7-Dimethoxy-N-(6-methyl-2,3-dihydro-1H-inden-1-yl)-1-oxo-2-(pentan-3-yl)-1,2-dihydroisoquinoline-4-carboxamide] was 100 to 200 nM. For `CCCCCNC(=O)c1cn(CC)c(=O)c2cc(OC)c(OC)cc12` [Example 21, 2-Ethyl-6,7-dimethoxy-1-oxo-1,2-dihydro-isoquinoline-4-carboxylic acid pentylamide], the IC50 was in the range of 200 to 500 nM.

Take `CCn1cc(C(=O)NC2CCc3sccc32)c2cnc(OC)cc2c1=O` (centres unmarked) [Example 230, 2-Ethyl-7-methoxy-1-oxo-1,2-dihydro-[2,6]naphthyridine-4-carboxylic acid (5,6-dihydro-4H-cyclopenta[b]thiophen-4-yl)-amide]: the IC50 was in the range of 100 to 200 nM. The value for `CCC(C)CNC(=O)c1cn(CC)c(=O)c2cc(OC)c(OC)cc12` (centres unmarked) [Example 20, 2-Ethyl-6,7-dimethoxy-1-oxo-1,2-dihydro-isoquinoline-4-carboxylic acid (2-methyl-butyl)-amide] was 200 to 500 nM; that for `CCn1cc(C(=O)NCc2ccc(C)cc2OC)c2cc(OC)c(OC)cc2c1=O` [Example 308, 2-Ethyl-6,7-dimethoxy-N-(2-methoxy-4-methylbenzyl)-1-oxo-1,2-dihydroisoquinoline-4-carboxamide] was 200 to 500 nM; that for `CCn1cc(C(=O)NCc2ccccc2C)c2cc(OC)c(OC)cc2c1=O` [Example 154, 2-Ethyl-6,7-dimethoxy-N-(2-methylbenzyl)-1-oxo-1,2-dihydroisoquinoline-4-carboxamide] was 100 to 200 nM. The value for `CCn1cc(C(=O)NC2CCc3c(C)cccc32)c2cc(OC)c(OC)cc2c1=O` (centres unmarked) [Example 174, 2-Ethyl-6,7-dimethoxy-N-(4-methyl-2,3-dihydro-1H-inden-1-yl)-1-oxo-1,2-dihydroisoquinoline-4-carboxamide] was 200 to 500 nM; that for `CCn1cc(C(=O)NCc2ccc(OC)cc2)c2cc(OC)c(OC)cc2c1=O` [Example 152, 2-Ethyl-6,7-dimethoxy-N-(4-methoxybenzyl)-1-oxo-1,2-dihydroisoquinoline-4-carboxamide] was 200 to 500 nM; that for `CCC(C)Oc1cc(C)ccc1CNC(=O)c1cn(CC)c(=O)c2cc(OC)c(OC)cc12` (centres unmarked) [Example 298, N-(2-sec-Butoxy-4-methylbenzyl)-2-ethyl-6,7-dimethoxy-1-oxo-1,2-dihydroisoquinoline-4-carboxamide] was 200 to 500 nM. The value for `CCc1nc(CNC(=O)c2cn(C(CC)CC)c(=O)c3cc(OC)c(OC)cc23)cs1` [Example 255, N-((2-Ethylthiazol-4-yl)methyl)-6,7-dimethoxy-1-oxo-2-(pentan-3-yl)-1,2-dihydroisoquinoline-4-carboxamide] was 200 to 500 nM.

(Values after patent US9856220B2 (AbbVie Deutschland GmbH & Co. KG, priority 2011, dated 2018).)
